Laboratory results published in PubChem BioAssay AID2060498 (Molecular Pharmacology Branch, DTP, NCI, 2025).

Test system: 171881-019-R-J1-PDC tumor spheroids, viability
Test: Anticancer human tumor 171881-019-R-J1-PDC patient-derived invasive breast carcinoma cell line growth inhibition [GQUAD]
Settings: spheroids with HUVEC and MSC; for IC50: curve of first compound; for viability, T/C: stronger effect = lower value
Method in brief: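 Viability of tumor cells grown as complex spheroids with endothelial and stromal cells, exposed to drug combinations. Top concentration at or near clinical Cmax (else 10 microM), diluted in half-log increments.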
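Further: spheroids exposed to compounds for 7 days.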
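Wherever viability, T/C is given: 100% = DMSO vehicle control viability.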

For `CC[C@@]1(O)C(=O)OCc2c1cc1n(c2=O)Cc2cc3c(CN(C)C)c(O)ccc3nc2-1` + Cc1cnc(CNC(=O)c2c(=O)c3ccc(N4CCCN(C)CC4)nc3n3c2sc2ccccc23)cn1, the IC50 (second compound 0.0316 µM) was 0.0838 µM, the IC50 (second compound 0.1 µM) was 0.141 µM and the IC50 (second compound 0.316 µM) was over 0.316 µM. For the same molecule, the IC50 (second compound 1 µM) was over 0.316 µM, the IC50 (second compound 3.16 µM) was over 0.316 µM and the IC50 (second compound 10 µM) was over 0.316 µM. It also gave a viability, T/C (second compound 0.0316 µM, first compound 0.000999 µM) of 96.2%, a viability, T/C (second compound 0.0316 µM, first compound 0.00316 µM) of 93.7% and a viability, T/C (second compound 0.0316 µM, first compound 0.00999 µM) of 89.8%. It also gave a viability, T/C (second compound 0.0316 µM, first compound 0.0316 µM) of 72.3%, a viability, T/C (second compound 0.0316 µM, first compound 0.0999 µM) of 45.2% and a viability, T/C (second compound 0.0316 µM, first compound 0.316 µM) of 40.8%. It also gave a viability, T/C (second compound 0.1 µM, first compound 0.000999 µM) of 89.5%, a viability, T/C (second compound 0.1 µM, first compound 0.00316 µM) of 78.6% and a viability, T/C (second compound 0.1 µM, first compound 0.00999 µM) of 76.7%. For the same molecule, the viability, T/C (second compound 0.1 µM, first compound 0.0316 µM) was 64.1%, the viability, T/C (second compound 0.1 µM, first compound 0.0999 µM) was 50% and the viability, T/C (second compound 0.1 µM, first compound 0.316 µM) was 45.8%. It also gave a viability, T/C (second compound 0.316 µM, first compound 0.000999 µM) of 74%, a viability, T/C (second compound 0.316 µM, first compound 0.00316 µM) of 73.1% and a viability, T/C (second compound 0.316 µM, first compound 0.00999 µM) of 68.9%. For the same molecule, the viability, T/C (second compound 0.316 µM, first compound 0.0316 µM) was 60.8%, the viability, T/C (second compound 0.316 µM, first compound 0.0999 µM) was 61.3% and the viability, T/C (second compound 0.316 µM, first compound 0.316 µM) was 50.9%. For the same molecule, the viability, T/C (second compound 1 µM, first compound 0.000999 µM) was 71.6%, the viability, T/C (second compound 1 µM, first compound 0.00316 µM) was 63.2% and the viability, T/C (second compound 1 µM, first compound 0.00999 µM) was 65.7%. For the same molecule, the viability, T/C (second compound 1 µM, first compound 0.0316 µM) was 60.7%, the viability, T/C (second compound 1 µM, first compound 0.0999 µM) was 56.4% and the viability, T/C (second compound 1 µM, first compound 0.316 µM) was 50.7%. The viability, T/C (second compound 3.16 µM, first compound 0.000999 µM) was 63.1%, the viability, T/C (second compound 3.16 µM, first compound 0.00316 µM) was 59.9% and the viability, T/C (second compound 3.16 µM, first compound 0.00999 µM) was 62.7%. It also gave a viability, T/C (second compound 3.16 µM, first compound 0.0316 µM) of 57%, a viability, T/C (second compound 3.16 µM, first compound 0.0999 µM) of 58.4% and a viability, T/C (second compound 3.16 µM, first compound 0.316 µM) of 50.7%. The viability, T/C (second compound 10 µM, first compound 0.000999 µM) was 58.5%, the viability, T/C (second compound 10 µM, first compound 0.00316 µM) was 54.4% and the viability, T/C (second compound 10 µM, first compound 0.00999 µM) was 54.8%. It also gave a viability, T/C (second compound 10 µM, first compound 0.0316 µM) of 59.7%, a viability, T/C (second compound 10 µM, first compound 0.0999 µM) of 60.5% and a viability, T/C (second compound 10 µM, first compound 0.316 µM) of 48%.
